Results reported in patent US20250375413A1, “METHOD OF INHIBITING LIPASE ACTIVITY IN AGING” (The Regents of the University of California, priority 2024, published 2025).
Entries after “also recorded” stand apart in the source; their conditions may differ.

Tests used:
[1] = Effect of oral treatment on digestion / body weight; type: in vivo, rat; details: old rats, temporary oral treatment in drinking water
Description: Male Wistar rats (Harlan Sprague Dawley Inc., Indianapolis, IN) at maturity (4 months, 300 to 350 gm) and at old age (24 months, 375 to 450 gm) were included in the study. The animals were maintained on standard laboratory chow (8604 Teklad rodent diet; Harlan Laboratories, Indianapolis, Ind) without restriction and water ad libitum and maintained in a separate room without pathogen-free conditions.

insulin receptor = test: Brain insulin receptor extracellular domain immunolabel density; type: in vivo, rat; details: old rats, two-week treatment
Description: Sections without primary antibodies were used as negative controls.
Insulin receptors' densities on random tissue sections, labeled with an antibody against the extracellular domain, are digitally recorded by placing an optical window on the cell and determining light intensity at a constant incident light Io.

pancreatic trypsin = details: old-treated rats (24 months, 14 days oral) compared with young
Description: A femoral venous catheter was placed after general anesthesia (pentobarbital sodium, 50 mg/kg [Abbott Laboratories, North Chicago, Il1], intramuscularly after local anesthesia [2% lidocaine HCl; Hospira, Inc, Lake Forrest, Il1]). Tissues (intestine, liver, lung, heart, kidney, brain, mesentery, skin) were immediately collected after euthanasia (Beuthanasia i.v., 120 mg/kg, Schering-Plough Animal Health Corp, Union, NJ), fixed (formalin, 10%, neutral buffered, 1 hr), postfixed (fresh formalin, 24 hrs), and stored (formalin, 10%). The period between initial anesthesia and fixation of the tissues was below 60 minutes. […]
Primary antibodies were diluted to 1-1.5 μl/1000 μl of phosphate-buffered saline. […] No counterstain was applied to facilitate quantitative label intensity measurements. […] For each tissue, the labeling procedures were standardized among the animal groups to permit a quantitative comparison of label densities between ages and treatment with digital image analysis.
Images of the immunolabel density were recorded at multiple magnifications (between 10× objective, numerical aperture 0.25, and 60×, numerical aperture 1.4). They were recorded under standard light conditions with fixed optical and digital camera settings (SPOT Insight® GIGABIT camera, Sterling Height) so that the camera serves as a quantitative light intensity meter without pixel intensity saturation. […]

[2] = Blood glucose level at tissue collection; type: in vivo, rat; details: old rats, two-week treatment
Description: At the time of tissue collection, fresh femoral arterial blood was used to measure the blood glucose level (Contour®, Bayer® Diabetes Care, Tarrytown, NY) and the percent of glycated hemoglobin levels (AIC Home Test; Bristol-Myers Squibb®; NY, NY).

[3] = system: mucin layer on the epithelium of the small intestine; test: Mucin layer density in small intestine (alcian blue); type: in vivo, rat; details: old rats, 14 days oral, upper jejunum
Description: (§1) Small intestine: Full-thickness tissue blocks of the wall of the proximal jejunum (3×5 mm) were fixed from all sides in 10% formalin. Digestive enzymes were detected with primary and secondary antibodies labeled with 3, 3′-diaminobenzidine (DAB, Peroxidase Substrate Kit, ab64238, Abcam®).
The mucin-containing layer on the epithelial cells of the small intestine was stained using alcian blue (pH 2.5, kt 003; Diagnostic BioSystems, Pleasanton, CA) followed by a rinse in distilled water and mounted on a microscope slide (Vector Mount AQ Aqueous Mounting Medium, Vector® Laboratories, Burlington, CA).

[4] = system: pancreatic trypsin and amylase; test: Digestive enzyme (trypsin, amylase) accumulation in the intestinal wall, whole mount co-labeling; type: in vivo, rat; details: old rats, 14 days oral; villi tips and submucosa
Description: as §1
To co-label the small intestine for mucin and trypsin, the fixed intestine was immersed in the primary antibody against trypsin and stained with DAB substrate. Thereafter the tissue section was embedded in resin and sectioned into thin (1 μm) sections. The mucin label (alcian blue), was applied to the thin section, coverslipped, and imaged.

With tranexamic acid [trypsin inhibitor] the “attenuation of digestion, such as reduction of body weight” value [1] was “did not lead to a detectable attenuation of digestion”, the “density of insulin receptor ectodomains in cerebral cortex” value (insulin receptor) was “in part restored; also recorded: restored in part” and the “trypsin label density in the brain” value (pancreatic trypsin) was “almost reached the level in the young (no significant difference)”. The “trypsin label density in the mesentery” value (pancreatic trypsin) was “not different from the young”, the plasma/blood glucose level [2] was “mitigated; also recorded: restored in part” and the “mucin layer density on intestinal villi” value [3] was “partially restored; also recorded: restored in part”. For the same substance, the “accumulation of trypsin and amylase in the intestinal wall” value [4] was “attenuated”.
